Assays:
[1] = test system: leucocyte migration towards the peritoneal cavity; assay: Pilot study: leucocyte migration towards the peritoneal cavity; format: in vivo, mouse; conditions: data not shown
Protocol: To measure plasma concentrations of 15a over time, Western type diet fed mice were injected with 5 mg/kg 15a, after which blood samples were taken at fixed time points (1, 2, 6 and 24 hours after injection). Blood samples were processed as described below under “Measurement of 15a plasma levels”. The final dose of 5 mg/kg/day was based on a pilot study in which two different doses (1.5 and 5 mg/kg/day) were tested using leucocyte migration towards the peritoneal cavity as a read-out. […] In addition, the dose of 5 mg/kg was also based on a previous study with TAK-779[38], in which a dose of 5 mg/kg was used.

hCCR2b = conditions: cited from earlier work
CCR2 = assay: Pharmacokinetics-based prediction of target occupancy; parameters: species or system mouse; conditions: calculated/simulated from plasma concentrations, single dose 5 mg/kg i.p., for 24 hours
Protocol: The target occupancy was calculated for each measurement of the drug concentration, according to equation (1), in which [C] is the concentration of the drug in the blood and KD is the drug target affinity.1 TargetOccupancy(%)=[C]/[C]+KD×100%
In addition, a simple mathematical model was used to simulate target occupancy for the observed in vivo pharmacokinetics and in vitro binding kinetics according to the equations in the next section (equations (3–5)).
To determine the maximal value of k off that would prolong the receptor occupancy even further, we used equation (2)[28], in which BF represents the percentage of target occupancy divided by 100 and t 1/2el represents the plasma elimination half-life (0.693/k el). In this case we set BF to 0.90, as 90% represents the minimum value of target occupancy to achieve efficacy. To obtain the elimination rate constant of compound 15a, a linear regression analysis of the natural logarithm of the concentrations versus time was performed, and the slope coefficient was used as the elimination rate constant k el.2 koff<0.693⋅(1−BF)/t1/2el
The concentrations of unbound drug in the blood [C] and target-bound drug [LR] were modeled according to equations (3–5). […]
The concentration of the target-bound drug is calculated according to equation (5):5 d[LR]/dt=kon⋅[C]⋅[Rfree]−koff⋅[LR] […]

apoE−/− mice = assay: Body weight, cholesterol, liver toxicity markers and plasma cytokines in treated apoE−/− mice; format: in vivo, mouse
Protocol: To determine the effect of the CCR2 antagonist on atherosclerotic lesion development, mice were fed a Western type diet, containing 0.25% cholesterol and 15% cocoabutter (SDS, Sussex, UK) throughout the experiment starting two week before surgery. Carotid artery plaque formation was induced by perivascular collar placement as described previously[46] and from the time of surgery, the mice received daily intraperitoneal injections containing 15a (5 mg/kg/day) or vehicle control (n = 9–10 per group). During the experiment, total body weight and weight gain were measured. Serum total cholesterol levels were determined using an enzymatic colorimetric assay according to manufacturer’s protocol (Roche Diagnostics). Precipath (standardized serum; Boehringer Mannheim, Germany) was used as an internal standard. Plasma cytokine levels were measured by ELISA according to manufacturer’s protocol (BD Biosciences). Blood was collected weekly via tail cut. Total cell count and cellular differentiation patterns in blood were analyzed using an automated XT-2000iV veterinary hematology analyzer (Sysmex Europe GMBH, Norderstedt, Germany). After erythrocyte lysis, blood leukocyte suspensions were stained for surface markers, after which their expression was determined by FACS analysis (FACS Canto, BD Biosciences). After 4 weeks of lesion development, the animals were anaesthetized and blood was collected. After in situ perfusion through the left cardiac chamber, the carotid arteries and hearts were harvested.
Macrophage content of the lesions in carotid arteries and aortic roots was stained using a rat monoclonal MOMA2 antibody (1:1000, Serotec, Kidlington, Oxford, UK). Macrophage positive areas were analyzed using computer-assisted colour-gated analysis, and related to the total intimal surface area (Leica QWin). Liver cryosections of 10 µm thick were prepared and subsequently stained with hematoxylin-eosin to analyze liver morphology, which was assessed using a Leica DMRE microscope (Leica Ltd., Cambridge, England).
Total RNA was extracted from homogenized liver tissue with the guanidium thiocyanate-phenol-bromochloropropane extraction method. RNA concentration, purity and integrity were examined by nanodrop (Nanodrop® Technologies). RNA was reverse transcribed by M-MuLV reverse transcriptase (RevertAid, MBI Fermentas, Landsmeer, The Netherlands) and used for quantitative analysis of the mouse genes ALT, AST, apoH and GC with an ABI PRISM 7700 Taqman apparatus (Applied Biosystems). For qPCR primer pairs refer to Supplementary Table S1.

For `CC(C)[C@]1(C(=O)N2CCc3ccc(C(F)(F)F)cc3C2)CC[C@@H](N[C@@H]2CCc3cc(Br)ccc32)C1` [15a, ((1S,3R)-3-(((R)-5-bromo-2,3-dihydro-1H-inden-1-yl)amino)-1-isopropylcyclopentyl)(7-(trifluoromethyl)-3,4-dihydroisoquinolin-2(1H)-yl)methanone], which “effective in inhibiting leucocyte migration” value ([1]; 1.5 mg/kg per day) is on record?
Its value is “not effective”.

What about the “effective in inhibiting leucocyte migration” value ([1]; 5 mg/kg per day) of the same molecule?
The value was “was”.

And the RT (hCCR2b; hCCR2, ref Vilums et al. [24])?
Its RT is 714 min.

What about the “lifetime (RT) on hCCR2” value (hCCR2b; hCCR2, ref [24]) of the same molecule?
The value was “more than 10 hours”.

What about the Ki (hCCR2b; hCCR2, ref [24], read-out: affinity for human CCR2) of the same molecule?
Its Ki is 2.4 nM.

What about the KRI (hCCR2b; hCCR2b, ref Vilums et al. [24]) of the same molecule?
The KRI was 1.7.

What about the Kd (hCCR2b; hCCR2b, ref Vilums et al. [24]) of the same molecule?
Its Kd is 0.175 nM.

And the koff (hCCR2b; hCCR2b, ref Vilums et al. [24])?
The koff was 2.33e-05 s⁻¹.

What about the kon (hCCR2b; hCCR2b, ref Vilums et al. [24]) of the same molecule?
Its kon is 130000 M⁻¹ s⁻¹.

What about the “target occupancy (CCR2)” value (CCR2) of the same molecule?
Its value is over 90%.

What about the body weight (apoE−/− mice; 5 mg/kg/day i.p., four weeks) of the same molecule?
Its body weight is “not significantly affected”.

What about the body weight gain (apoE−/− mice; 5 mg/kg/day i.p., four weeks) of the same molecule?
Its body weight gain is “not affected”.

And the “plasma total cholesterol levels” value (apoE−/− mice; 5 mg/kg/day i.p., four weeks)?
Its value is “not significantly affected”.

And the “liver mRNA levels of AST” value (apoE−/− mice; P = 0.02)?
The value was “somewhat decreased”.

And the “liver mRNA expression of the toxicity markers ALT, apoH and GC” value (apoE−/− mice; mouse, in vivo)?
Its value is “did not affect”.

What about the “plasma CCL2 levels” value (apoE−/− mice; mouse, in vivo) of the same molecule?
Its value is “increased”.

And the “plasma IL-6 levels” value (apoE−/− mice; mouse, in vivo)?
The value was “remained unaffected”.

And the liver morphology (apoE−/− mice; versus controls)?
The liver morphology was “similar”.

— PMC5427923, “A novel CCR2 antagonist inhibits atherogenesis in apoE deficient mice by achieving high receptor occupancy” (Scientific Reports, 2017)
